Like-named read-outs stand apart in the source and are kept apart here.
Columns and labels:
Rhesus PDE2A3 = Rhesus PDE2A3 (Macaca mulatta, UniProt B3VTJ2); experiment: PDE2 fluorescence polarization (IMAP FP) inhibition assay, rhesus enzyme; type: biochemical, rhesus macaque
Summary of the method: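 Rhesus PDE2A3 came from lysate of transiently transfected AD293 cells, diluted to give 20% substrate conversion. Substrate was 50 nM FAM-cAMP with 1 uM cGMP activator in Tris pH 7.2/MgCl2 buffer, run 60 min at room temperature over 10-point 3-fold dilutions in 1% DMSO. Read-out was IMAP fluorescence polarization (mP) after ≥1 h binding.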

human PDE2A1 = human PDE2A1 (Homo sapiens (Human), UniProt O00408); experiment: IMAP FP PDE selectivity panel, human PDE2A1; type: biochemical
Summary of the method: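 GST-tagged human PDE2A1 expressed in insect cells, run at room temperature for 60 min with 50 nM FAM-cAMP containing 1000 nM cGMP, pH 7.2 Tris/MgCl2 buffer. IMAP fluorescence polarization read after binding step.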

[1] = Rhesus PDE2, Lab A, read-out: Rhesus PDE2 Ki (nM) - Lab A
[2] = Human PDE2, Lab A, read-out: Human PDE2 Ki (nM) - Lab A
[3] = Rhesus PDE2, Lab B, read-out: Rhesus PDE2 Ki (nM) - Lab B
[4] = Human PDE2, Lab B, read-out: Human PDE2 Ki (nM) - Lab B

Sequence of human PDE2A1 (O00408 other isoform, or with tags, fused parts or gaps): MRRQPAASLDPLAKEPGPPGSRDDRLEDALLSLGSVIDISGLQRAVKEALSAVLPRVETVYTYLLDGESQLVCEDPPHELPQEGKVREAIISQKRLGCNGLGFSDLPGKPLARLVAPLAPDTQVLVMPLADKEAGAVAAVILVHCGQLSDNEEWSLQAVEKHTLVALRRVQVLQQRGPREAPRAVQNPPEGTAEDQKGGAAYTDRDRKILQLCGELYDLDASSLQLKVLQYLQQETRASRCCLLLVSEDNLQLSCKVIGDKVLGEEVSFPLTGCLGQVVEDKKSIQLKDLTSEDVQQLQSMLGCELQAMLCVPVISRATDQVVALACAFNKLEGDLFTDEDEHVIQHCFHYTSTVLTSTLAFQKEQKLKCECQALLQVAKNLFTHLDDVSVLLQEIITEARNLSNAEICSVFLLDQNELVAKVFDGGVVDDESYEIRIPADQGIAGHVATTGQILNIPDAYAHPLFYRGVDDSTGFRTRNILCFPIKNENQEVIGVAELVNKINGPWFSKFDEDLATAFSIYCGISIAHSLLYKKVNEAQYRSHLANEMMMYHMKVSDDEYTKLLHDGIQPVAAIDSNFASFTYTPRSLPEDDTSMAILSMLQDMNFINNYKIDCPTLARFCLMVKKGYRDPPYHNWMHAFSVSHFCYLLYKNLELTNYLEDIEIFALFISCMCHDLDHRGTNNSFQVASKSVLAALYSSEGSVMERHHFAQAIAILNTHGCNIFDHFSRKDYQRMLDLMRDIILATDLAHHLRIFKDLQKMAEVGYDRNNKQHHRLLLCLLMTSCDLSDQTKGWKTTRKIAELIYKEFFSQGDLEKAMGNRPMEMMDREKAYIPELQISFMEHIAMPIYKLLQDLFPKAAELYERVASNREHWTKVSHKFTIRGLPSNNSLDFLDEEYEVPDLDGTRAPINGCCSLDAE
Sequence of Rhesus PDE2A3 (B3VTJ2 1-941): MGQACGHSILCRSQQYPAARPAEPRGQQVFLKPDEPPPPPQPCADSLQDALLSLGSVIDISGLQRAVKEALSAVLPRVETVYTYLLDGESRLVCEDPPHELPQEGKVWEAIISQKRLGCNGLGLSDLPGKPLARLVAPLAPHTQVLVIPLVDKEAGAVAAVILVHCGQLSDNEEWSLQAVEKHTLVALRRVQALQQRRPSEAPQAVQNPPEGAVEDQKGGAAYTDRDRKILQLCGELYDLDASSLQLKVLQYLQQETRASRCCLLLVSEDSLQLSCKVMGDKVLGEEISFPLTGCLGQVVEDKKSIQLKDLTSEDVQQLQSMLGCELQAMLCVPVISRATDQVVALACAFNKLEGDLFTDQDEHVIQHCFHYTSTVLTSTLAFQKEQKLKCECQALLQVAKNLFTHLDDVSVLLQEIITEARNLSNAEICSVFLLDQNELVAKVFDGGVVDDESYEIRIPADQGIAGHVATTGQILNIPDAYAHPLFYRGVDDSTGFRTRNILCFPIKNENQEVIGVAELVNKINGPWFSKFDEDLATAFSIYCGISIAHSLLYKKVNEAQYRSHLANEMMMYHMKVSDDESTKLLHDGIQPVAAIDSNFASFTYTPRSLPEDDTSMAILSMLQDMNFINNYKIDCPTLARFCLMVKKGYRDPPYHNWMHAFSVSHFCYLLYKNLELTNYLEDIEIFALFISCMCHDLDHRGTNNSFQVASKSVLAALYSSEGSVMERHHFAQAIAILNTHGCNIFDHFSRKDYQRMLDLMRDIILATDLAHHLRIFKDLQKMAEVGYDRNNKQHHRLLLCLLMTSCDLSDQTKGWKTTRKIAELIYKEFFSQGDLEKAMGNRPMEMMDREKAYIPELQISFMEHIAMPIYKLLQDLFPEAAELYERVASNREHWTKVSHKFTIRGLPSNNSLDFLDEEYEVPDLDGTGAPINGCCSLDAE

| Ki (Rhesus PDE2A3; [1]) [nM] | Ki (human PDE2A1; [2]) [nM] | Ki (Rhesus PDE2A3; [3]) [nM] | Ki (human PDE2A1; [4]) [nM] | SMILES |
| --- | --- | --- | --- | --- |
| 2900 | 2270 |  |  | CCc1c(C(=O)N[C@H](C)c2ccc(C(F)(F)F)cc2)nc[nH]c1=O [Example 332, (R)-5-ethyl-6-oxo-N-(1-(4-(trifluoromethyl)phenyl)ethyl)-1,6-dihydropyrimidine-4-carboxamide] |
| 89 | 80 |  |  | CCc1nc(C(=O)N[C@H](C)c2ccc(C(F)(F)F)cc2)c(CC)c(=O)[nH]1 [Example 333, (R)-2,5-diethyl-6-oxo-N-(1-(4-(trifluoromethyl)phenyl)ethyl)-1,6-dihydropyrimidine-4-carboxamide] |
| 2830 | 2370 |  |  | C[C@@H](NC(=O)c1nc[nH]c(=O)c1C1CCC1)c1ccc(C(F)(F)F)cc1 [Example 334, (R)-5-cyclobutyl-6-oxo-N-(1-(4-(trifluoromethyl)phenyl)ethyl)-1,6-dihydropyrimidine-4-carboxamide] |
| 1320 | 1220 |  |  | C[C@@H](NC(=O)c1nc(C2CCC2)[nH]c(=O)c1C1CCC1)c1ccc(C(F)(F)F)cc1 [Example 335, (R)-2,5-dicyclobutyl-6-oxo-N-(1-(4-(trifluoromethyl)phenyl)ethyl)-1,6-dihydropyrimidine-4-carboxamide] |
| 60 | 59 |  |  | Cc1nc(C(=O)NC(c2ccc(C(F)(F)F)cc2)c2nnn[nH]2)cc(=O)[nH]1 (stereo not drawn) [Example 336, 2-Methyl-6-oxo-N-{1H-tetrazol-5-yl[4-(trifluoromethyl)phenyl]methyl}-1,6-dihydropyrimidine-4-carboxamide] |
| 0.4 |  | 1.2 | 1.1 | CC(C)(C)[C@@H](NC(=O)c1cc(=O)[nH]c(-c2ccccc2)n1)c1ccc(C(F)(F)F)cc1 [Example 337, N-{(1R)-2,2-dimethyl-1-[4-(trifluoromethyl)phenyl]propyl}-6-oxo-2-phenyl-1,6-dihydropyrimidine-4-carboxamide] |
| 29 |  | 71 | 65 | COc1cc(CNC(=O)c2cc(=O)[nH]c(-c3ccccc3)n2)cc(OC)c1OC [Example 338, 6-oxo-2-phenyl-N-(3,4,5-trimethoxybenzyl)-1,6-dihydropyrimidine-4-carboxamide] |
| 49 |  | 109 | 83 | CC(C)(NC(=O)c1cc(=O)[nH]c(-c2ccccc2)n1)c1ccc(Br)cc1 [Example 340, N-[1-(4-bromophenyl)-1-methylethyl]-6-oxo-2-phenyl-1,6-dihydropyrimidine-4-carboxamide] |
| ~11 |  | 24 | 19 | CSCC(NC(=O)c1cc(=O)[nH]c(-c2ccccc2)n1)c1ccc(C(F)(F)F)cc1 (stereo not drawn) [Example 341, N-{2-(methylsulfanyl)-1-[4-(trifluoromethyl)phenyl]ethyl}-6-oxo-2-phenyl-1,6-dihydropyrimidine-4-carboxamide] |
| 45 |  | 74 | 50 | COc1ccc([C@@H](C)NC(=O)c2cc(=O)[nH]c(-c3ccccc3)n2)cc1 [Example 347, N-[(1R)-1-(4-methoxyphenyl)ethyl]-6-oxo-2-phenyl-1,6-dihydropyrimidine-4-carboxamide] |
| 21 |  |  | 39 | CC(NC(=O)c1cc(=O)[nH]c(-c2ccccc2)n1)c1ccc(-n2cccn2)cc1 (stereo not drawn) [Example 350, 6-oxo-2-phenyl-N-{1-[4-(1H-pyrazol-1-yl)phenyl]ethyl}-1,6-dihydropyrimidine-4-carboxamide] |
| 124 |  | 217 | 224 | COc1cc(C(C)NC(=O)c2cc(=O)[nH]c(-c3ccccc3)n2)cc(OC)c1OC (stereo not drawn) [Example 351, 6-oxo-2-phenyl-N-[1-(3,4,5-trimethoxyphenyl)ethyl]-1,6-dihydropyrimidine-4-carboxamide] |
| 15 |  | 51 | 54 | O=C(NC1(c2ccc(SC(F)(F)F)c(F)c2)CC1)c1cc(=O)[nH]c(-c2ccccc2)n1 [Example 352, N-(1-{3-fluoro-4-[(trifluoromethyl)sulfanyl]phenyl}cyclopropyl)-6-oxo-2-phenyl-1,6-dihydropyrimidine-4-carboxamide] |
| ~9.2 |  | 23 | 21 | O=C(N[C@H](CC(F)(F)F)c1ccc(C(F)(F)F)cc1)c1cc(=O)[nH]c(-c2ccccc2)n1 [Example 353, 6-oxo-2-phenyl-N-{(1R)-3,3,3-trifluoro-1-[4-(trifluoromethyl)phenyl]propyl}-1,6-dihydropyrimidine-4-carboxamide] |
| 62 |  | 173 | 129 | COC(=O)c1ccc([C@@H](C)NC(=O)c2cc(=O)[nH]c(-c3ccccc3)n2)cc1 [Example 359, methyl 4-[(1R)-1-{[(6-oxo-2-phenyl-1,6-dihydropyrimidin-4-yl)carbonyl]amino}ethyl]benzoate] |
| 222 |  | 459 | ~488 | CC(NC(=O)c1cc(=O)[nH]c(-c2ccccc2)n1)c1ccc2c(c1)OCCO2 (stereo not drawn) [Example 360, N-[1-(2,3-dihydro-1,4-benzodioxin-6-yl)ethyl]-6-oxo-2-phenyl-1,6-dihydropyrimidine-4-carboxamide] |
| ~78 |  | 99 | 81 | CC(C)(NC(=O)c1cc(=O)[nH]c(-c2ccccc2)n1)c1ccc(SC(F)(F)F)c(F)c1 [Example 361, N-(1-{3-fluoro-4-[(trifluoromethyl)sulfanyl]phenyl}-1-methylethyl)-6-oxo-2-phenyl-1,6-dihydropyrimidine-4-carboxamide] |
| 245 |  | 356 | 354 | CC(NC(=O)c1cc(=O)[nH]c(-c2ccccc2)n1)c1ccc(-n2cncn2)cc1 (stereo not drawn) [Example 363, 6-oxo-2-phenyl-N-{1-[4-(1H-1,2,4-triazol-1-yl)phenyl]ethyl}-1,6-dihydropyrimidine-4-carboxamide] |
| 132 |  | 458 | 386 | O=C(N[C@@H](CC(F)(F)F)c1ccc(C(F)(F)F)cc1)c1cc(=O)[nH]c(-c2ccccc2)n1 [Example 366, 6-oxo-2-phenyl-N-{(1S)-3,3,3-trifluoro-1-[4-(trifluoromethyl)phenyl]propyl}-1,6-dihydropyrimidine-4-carboxamide] |
| 74 |  | 314 | 262 | O=C(NC(c1ccc(F)cc1)c1ccc(C(F)(F)F)cc1)c1cc(=O)[nH]c(-c2ccccc2)n1 (stereo not drawn) [Example 367, N-{(4-fluorophenyl)[4-(trifluoromethyl)phenyl]methyl}-6-oxo-2-phenyl-1,6-dihydropyrimidine-4-carboxamide] |
| 68 |  | 150 | 117 | O=C(NCc1ccc(C(F)(F)F)cc1)c1cc(=O)[nH]c(-c2ccccc2)n1 [Example 371, 6-oxo-2-phenyl-N-[4-(trifluoromethyl)benzyl]-1,6-dihydropyrimidine-4-carboxamide] |
| ~149 |  |  | ~661 | O=C(NCc1ccc(-c2ccccc2)cc1)c1cc(=O)[nH]c(-c2ccccc2)n1 [Example 372, N-(biphenyl-4-ylmethyl)-6-oxo-2-phenyl-1,6-dihydropyrimidine-4-carboxamide] |
| 155 |  | 225 | 183 | CC(C)(NC(=O)c1cc(=O)[nH]c(-c2ccccc2)n1)c1ccccc1Br [Example 373, N-[1-(2-bromophenyl)-1-methylethyl]-6-oxo-2-phenyl-1,6-dihydropyrimidine-4-carboxamide] |
| 24 |  | 36 | 33 | C[C@@H](NC(=O)c1cc(=O)[nH]c(-c2ccccc2)n1)c1ccc(N(C)C)cc1 [Example 374, N-{(1R)-1-[4-(dimethylamino)phenyl]ethyl}-6-oxo-2-phenyl-1,6-dihydropyrimidine-4-carboxamide] |
| 28 |  |  | 58 | O=C(NCc1ccc(S(F)(F)(F)(F)F)cc1)c1cc(=O)[nH]c(-c2ccccc2)n1 [Example 377, 6-oxo-N-[4-(pentafluoro-λ^6-sulfanyl)benzyl]-2-phenyl-1,6-dihydropyrimidine-4-carboxamide] |
| 26 |  | 41 | 41 | COc1ccc2cc(C(C)NC(=O)c3cc(=O)[nH]c(-c4ccccc4)n3)ccc2c1 (stereo not drawn) [Example 378, N-[1-(6-methoxynaphthalen-2-yl)ethyl]-6-oxo-2-phenyl-1,6-dihydropyrimidine-4-carboxamide] |
| 69 |  |  | 114 | CC1Cc2cc(C(C)NC(=O)c3cc(=O)[nH]c(-c4ccccc4)n3)ccc2O1 (stereo not drawn) [Example 379, N-[1-(2-methyl-2,3-dihydro-1-benzofuran-5-yl)ethyl]-6-oxo-2-phenyl-1,6-dihydropyrimidine-4-carboxamide] |
|  |  | 4.2 | 2.9 | CC(C)[C@@H](NC(=O)c1cc(=O)[nH]c(-c2ccccc2)n1)c1ccc(C(F)(F)F)c(F)c1 [Example 383, N-{(1R)-1-[3-fluoro-4-(trifluoromethyl)phenyl]-2-methylpropyl}-6-oxo-2-phenyl-1,6-dihydropyrimidine-4-carboxamide] |
|  |  | 7 | 4.4 | CC[C@@H](NC(=O)c1cc(=O)[nH]c(-c2ccccc2)n1)c1ccc(SC(F)(F)F)c(F)c1 [Example 385, N-[(1R)-1-{3-fluoro-4-[(trifluoromethyl)sulfanyl]phenyl}pro-pyl]-6-oxo-2-phenyl-1,6-dihydropyrimidine-4-carboxamide] |
|  |  | 8.1 | 6.5 | CC[C@@H](NC(=O)c1cc(=O)[nH]c(-c2ccccc2)n1)c1ccc(S(F)(F)(F)(F)F)cc1 [Example 386, 6-oxo-N-{(1R)-1-[4-(pentafluoro-λ^6-sulfanyl)phenyl]propyl}-2-phenyl-1,6-dihydropyrimidine-4-carboxamide] |

Reference: US9815796B2 (Merck Sharp & Dohme Corp., priority 2013, dated 2017)
